Assay results published in patent publication US6360588B1, “Materials and methods for the analysis of substances passing through a membrane” (priority 1998, dated 2002).

Experiment: diffusion through polydimethylsiloxane membrane (MAPI, electrospray mass spectrometry detection)
Assay type: physicochemical
Details: polydimethylsiloxane membrane 0.01 to 0.05 inches thick; result in words, curves in FIGS. 8-11
Source text: In operation, once the membrane and spacer are in place and the top portion 50 and bottom plate 56 are secured, a substance under study can be placed in contact with the first side of the membrane. Carrier fluid can be flowing through volume 64 and to a detection means. As the substance diffuses through the membrane and exits the second side of the membrane, it can be carried to the detection apparatus for analysis. In this way, an accurate time dependent curve can be generated as to the amounts of the substance under study exiting the second side of the membrane. This example illustrates the results from diffusion of a variety of substances through polydimethylsiloxane membrane obtained from PILLAR SCIENTIFIC, ranging in thickness from 0.01 inches to 0.05 inches. A mass spectrometer was used as a detection apparatus with electrospray ionization utilized to ionize the sample for detection in the mass spectrometer.

CCCCOC(=O)c1ccc(O)cc1 [n-butyl paraben]
diffusion through the membrane (relative abundance exiting the second side as a function of time): diffusion of n-butyl paraben through the polydimethylsiloxane membrane

Clc1cccc(Cl)c1N=C1NCCN1 [clonidine]
diffusion through the membrane (relative abundance exiting the second side as a function of time): clonidine diffusing through the membrane

COC(=O)c1ccc(O)cc1 [methyl paraben]
diffusion through the membrane (relative abundance exiting the second side as a function of time): diffusion of methyl paraben through the polydimethylsiloxane membrane

CCOC(=O)c1ccc(O)cc1 [ethyl paraben]
diffusion through the membrane (relative abundance exiting the second side as a function of time): diffusion of ethyl paraben through the polydimethylsiloxane membrane
